Laboratory results reported in patent US20230211004A1, “TETANUS TOXOID AND CRM-BASED PEPTIDES AND METHODS OF USE” (UNIVERSITY OF GEORGIA RESEARCH FOUNDATION, INC., priority 2019, published 2023).
Entries after “also recorded” stand apart in the source; their conditions may differ.

Experiments:
[1] = tested on: IFN-γ production by CD4+ T cell enriched donor PBMCs; assay type: cell-based, human
[2] = tested on: MHCII molecules (HLA-DR, HLA-DP, HLA-DQ) of Raji B cells; assay type: binding, human
CD4+ T cells = assay type: cell-based, human

| Sequence | Donor 1 IFN-γ [1] | Donor 2 IFN-γ [1] | Donor 3 IFN-γ [1] | Donor 4 IGN-γ [1] | IFN-γ production [1] | number of donors with significant levels of IFN-γ [1] | Observed in Isotypes [2] | CD4+ T cell proliferation compared to basal growth rate (CD4+ T cells) | Donor 3 CFSE (CD4+ T cells) | Donor 4 CFSE (CD4+ T cells) | donors that gave positive / significant T cell response (CD4+ T cells) | Donor 1 CFSE (CD4+ T cells) | Donor 2 CFSE (CD4+ T cells) | number of donors with positive T cell proliferative response (CD4+ T cells) | T cell response against previously published TT epitopes (CD4+ T cells) |
| --- | --- | --- | --- | --- | --- | --- | --- | --- | --- | --- | --- | --- | --- | --- | --- |
| CKALNPKEIE (TT-derived peptide) [TT1093-1102] | * (key: * p < 0.05; ** p < 0.005; *** p < 0.0005) | * (key: * p < 0.05; ** p < 0.005; *** p < 0.0005) | ** (key: * p < 0.05; ** p < 0.005; *** p < 0.0005) | * (key: * p < 0.05; ** p < 0.005; *** p < 0.0005) | significant levels of IFN-γ response; also recorded: significant production of IFN-γ | at least three | pulled down in the -DQ IP; also recorded: DR, DQ | not significant compared to basal growth rate | ** (key: * p < 0.05; ** p < 0.005; *** p < 0.0005) | *** (key: * p < 0.05; ** p < 0.005; *** p < 0.0005) | Donors 3 and 4 | – | – | – | – |
| DRILRVGYNAPGIPL (TT-derived peptide) [TT1222-1236] | – | *** (key: * p < 0.05; ** p < 0.005; *** p < 0.0005) | – | – | significant production of IFN-γ | – | – | – | – | * (key: * p < 0.05; ** p < 0.005; *** p < 0.0005) | – | * (key: * p < 0.05; ** p < 0.005; *** p < 0.0005) | *** (key: * p < 0.05; ** p < 0.005; *** p < 0.0005) | three | – |
| GLTKVLALKVD (CRM-derived peptide) [CRM87-97] | * (key: * p < 0.05; ** p < 0.005; *** p < 0.0005) | ** (key: * p < 0.05; ** p < 0.005; *** p < 0.0005) | *** (key: * p < 0.05; ** p < 0.005; *** p < 0.0005) | ** (key: * p < 0.05; ** p < 0.005; *** p < 0.0005) | significant levels of IFN-γ response; also recorded: significant production of IFN-γ | at least three | – | not significant compared to basal growth rate | ** (key: * p < 0.05; ** p < 0.005; *** p < 0.0005) | *** (key: * p < 0.05; ** p < 0.005; *** p < 0.0005) | Donors 3 and 4 | – | – | – | – |
| GYNAPGIPLYKK (TT-derived peptide) [TT1228-1239] | – | – | ** (key: * p < 0.05; ** p < 0.005; *** p < 0.0005) | ** (key: * p < 0.05; ** p < 0.005; *** p < 0.0005) | – | – | – | – | ** (key: * p < 0.05; ** p < 0.005; *** p < 0.0005) | *** (key: * p < 0.05; ** p < 0.005; *** p < 0.0005) | Donors 3 and 4 | – | – | – | – |
| GYVDSIQKGIQKPK (CRM-derived peptide) [CRM26-39] | ** (key: * p < 0.05; ** p < 0.005; *** p < 0.0005) | ** (key: * p < 0.05; ** p < 0.005; *** p < 0.0005) | * (key: * p < 0.05; ** p < 0.005; *** p < 0.0005) | *** (key: * p < 0.05; ** p < 0.005; *** p < 0.0005) | significant levels of IFN-γ response; also recorded: significant production of IFN-γ | at least three | – | increased proliferation | * (key: * p < 0.05; ** p < 0.005; *** p < 0.0005) | *** (key: * p < 0.05; ** p < 0.005; *** p < 0.0005) | – | * (key: * p < 0.05; ** p < 0.005; *** p < 0.0005) | – | three | – |
| KFIIKRYTPNNEIDSF (TT-derived peptide) [Peptide P32, reference compound] | – | ** (key: * p < 0.05; ** p < 0.005; *** p < 0.0005) | ** (key: * p < 0.05; ** p < 0.005; *** p < 0.0005) | * (key: * p < 0.05; ** p < 0.005; *** p < 0.0005) | – | – | – | – | ** (key: * p < 0.05; ** p < 0.005; *** p < 0.0005) | *** (key: * p < 0.05; ** p < 0.005; *** p < 0.0005) | – | – | *** (key: * p < 0.05; ** p < 0.005; *** p < 0.0005) | – | no significant response |
| KTTAALSILPGIGS (CRM-derived peptide) [CRM299-312] | * (key: * p < 0.05; ** p < 0.005; *** p < 0.0005) | ** (key: * p < 0.05; ** p < 0.005; *** p < 0.0005) | * (key: * p < 0.05; ** p < 0.005; *** p < 0.0005) | ** (key: * p < 0.05; ** p < 0.005; *** p < 0.0005) | significant levels of IFN-γ response; also recorded: significant production of IFN-γ | at least three | pulled down in the HLA-DP specific immunoprecipitation; also recorded: pulled down in the -DQ IP; also recorded: identified through the -DR IP; also recorded: DR, DP, DQ | increased proliferation | ** (key: * p < 0.05; ** p < 0.005; *** p < 0.0005) | *** (key: * p < 0.05; ** p < 0.005; *** p < 0.0005) | – | *** (key: * p < 0.05; ** p < 0.005; *** p < 0.0005) | *** (key: * p < 0.05; ** p < 0.005; *** p < 0.0005) | four | – |
| LFNRIKNNVAGEAL (TT-derived peptide) [TT94-107] | – | ** (key: * p < 0.05; ** p < 0.005; *** p < 0.0005) | ** (key: * p < 0.05; ** p < 0.005; *** p < 0.0005) | * (key: * p < 0.05; ** p < 0.005; *** p < 0.0005) | significant production of IFN-γ | at least three | – | increased proliferation | *** (key: * p < 0.05; ** p < 0.005; *** p < 0.0005) | ** (key: * p < 0.05; ** p < 0.005; *** p < 0.0005) | – | – | *** (key: * p < 0.05; ** p < 0.005; *** p < 0.0005) | three | – |
| LYNGLKFIIKR (TT-derived peptide) [TT1169-1179] | – | * (key: * p < 0.05; ** p < 0.005; *** p < 0.0005) | * (key: * p < 0.05; ** p < 0.005; *** p < 0.0005) | * (key: * p < 0.05; ** p < 0.005; *** p < 0.0005) | significant production of IFN-γ | at least three | – | – | * (key: * p < 0.05; ** p < 0.005; *** p < 0.0005) | – | – | * (key: * p < 0.05; ** p < 0.005; *** p < 0.0005) | *** (key: * p < 0.05; ** p < 0.005; *** p < 0.0005) | three | – |
| NFIGALET (TT-derived peptide) [TT660-667] | * (key: * p < 0.05; ** p < 0.005; *** p < 0.0005) | – | * (key: * p < 0.05; ** p < 0.005; *** p < 0.0005) | * (key: * p < 0.05; ** p < 0.005; *** p < 0.0005) | significant levels of IFN-γ response | at least three | – | – | ** (key: * p < 0.05; ** p < 0.005; *** p < 0.0005) | *** (key: * p < 0.05; ** p < 0.005; *** p < 0.0005) | Donors 3 and 4 | – | – | – | – |
| NILMQYIKANSK (TT-derived peptide) [TT826-837] | – | – | * (key: * p < 0.05; ** p < 0.005; *** p < 0.0005) | – | – | – | – | no significant response | – | – | – | – | – | one | – |
| QYIKANSKFIGITEL (TT-derived peptide) [Peptide P2, reference compound] | – | – | – | * (key: * p < 0.05; ** p < 0.005; *** p < 0.0005) | – | – | – | did not show increased proliferation; also recorded: did not show significant proliferation | * (key: * p < 0.05; ** p < 0.005; *** p < 0.0005) | *** (key: * p < 0.05; ** p < 0.005; *** p < 0.0005) | – | – | – | – | no significant response |
| TPLPIAGVLLPTIPGK (CRM-derived peptide) [CRM425-440] | – | ** (key: * p < 0.05; ** p < 0.005; *** p < 0.0005) | ** (key: * p < 0.05; ** p < 0.005; *** p < 0.0005) | *** (key: * p < 0.05; ** p < 0.005; *** p < 0.0005) | significant production of IFN-γ | at least three | pulled down in the -DQ IP; also recorded: DR, DQ | increased proliferation | ** (key: * p < 0.05; ** p < 0.005; *** p < 0.0005) | *** (key: * p < 0.05; ** p < 0.005; *** p < 0.0005) | Donors 2,3, and 4 | – | *** (key: * p < 0.05; ** p < 0.005; *** p < 0.0005) | three | – |
